The values below come from article PMC10743388, “Jacalin-Curcumin Complex Sensitizes the Breast Cancer MDA-MB-231 Cell Line” (International Journal of Molecular Sciences, 2023).

The assay has as its target T1, jacalin (Artocarpus integer, UniProt P18670+P18671).
T1 construct: native tetrameric lectin isolated from jackfruit seeds; labelled with Red-NHS 2nd Generation (Alexa Fluor 647) for MST
Put plainly: microscale thermophoresis with labelled jacalin; steady-state fluorescence titration also gave KD […]. It is filed as binding. A general note: MST reads how a fluorescent partner responds to local heating, with and without ligand.

T1 sequence (P18670 whole entry): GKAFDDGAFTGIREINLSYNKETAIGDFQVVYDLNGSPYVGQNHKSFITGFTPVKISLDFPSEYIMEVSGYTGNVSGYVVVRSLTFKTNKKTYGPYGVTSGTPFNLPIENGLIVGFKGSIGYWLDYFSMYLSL
T1 sequence (P18671 whole entry): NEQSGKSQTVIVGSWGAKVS

On to `COc1cc(/C=C/C(=O)CC(=O)/C=C/c2ccc(O)c(OC)c2)ccc1O` [curcumin], for which the Kd (commonly the equilibrium constant for the complex coming apart) came out at 450 nM.
